Reference: patent US20250361209A1, “CRYSTAL FORMS OF N-(3-FLUOROPHENYL)-6-(6,7-DIMETHOXYQUINOLIN-4-OXY)-3,4-DIHYDROQUINOLINE-1(2H)-CARBOXAMIDE METHANESULFONATE AND PREPARATION METHOD THEREOF” (Shanghai Yi Feng Biotechnology Co., Ltd., priority 2023, published 2025)
Entries after “also recorded” stand apart in the source; their conditions may differ.

How the values were obtained:
Type in all cases: physicochemical
[1] = Test of influencing factors of crystalline forms A, B and C (total impurity)
Excerpt: Example 3 Test of Influencing Factors of Crystalline Forms A, B and C

[2] = Solid state stability of the crystalline form C of methanesulfonate (HPLC purity, XRPD); conditions: for change in HPLC purity: closed condition 60° C. 24 hours, open condition 25° C./60% RH 1 week or 4 weeks, methanesulfonate
Procedure: The purity decreased from 99.22 area % to 98.80 area % after the crystalline form C was placed under an open condition in an environment of 40° C./75% RH for 4 weeks, with a 0.38% increase in the impurity at RRT of 0.81.

Hygroscopicity, DVS test = test: Hygroscopicity, DVS test
Procedure: The hygroscopicity of the anhydrate crystalline form C of methanesulfonate was evaluated by a DVS test at 0% RH-95% RH at 25° C.

[3] = 60° C./closed condition/24 hours
[4] = Start* (RH tests; stored at −20° C.)
[5] = open condition 40° C./75% RH, 4 weeks

- Total impurity % ([1]; High humidity (RH92.5%), 0 day): 0.66%
- Total impurity % ([1]; High humidity (RH92.5%), 10 days): 0.75%
- Total impurity % ([1]; High humidity (RH92.5%), 30 days): 0.73%
- Total impurity % ([1]; High temperature (60° C.), 0 day, methanesulfonate): 0.66%
- Total impurity % ([1]; High temperature (60° C.), 10 days, methanesulfonate): 0.81%
- Total impurity % ([1]; High temperature (60° C.), 30 days): 0.85%
- Total impurity % ([1]; Illumination (5000 + 500 lux), 0 day, methanesulfonate): 0.66%
- Total impurity % ([1]; Illumination (5000 + 500 lux), 10 days, methanesulfonate): 0.83%
- Total impurity % ([1]; Illumination (5000 + 500 lux), 30 days, methanesulfonate): 0.89%
- Purity, area %, peak 1 RRT 0.42 ([2]; 25° C./60% RH open, 1 week*): 0.02 area %
- Purity, area %, peak 2 RRT 0.60-0.61 ([2]; 25° C./60% RH open, 1 week*): 0.04 area %
- Purity, area %, peak 3 RRT 0.81 ([2]; 25° C./60% RH open, 1 week*): 0.55 area %
- Purity, area %, peak 4 RRT 0.93 ([2]; 25° C./60% RH open, 1 week*): 0.05 area %
- Purity, area %, peak 5 RRT 1.00 (main peak) ([2]; 25° C./60% RH open, 1 week*): 99.15 area %
- Purity, area %, peak 6 RRT 1.10 ([2]; 25° C./60% RH open, 1 week*): 0.14 area %
- Purity, area %, peak 7 RRT 1.27 ([2]; 25° C./60% RH open, 1 week*): 0.06 area %
- Purity, area %, peak 1 RRT 0.42 ([2]; 25° C./60% RH open, 4 weeks): 0.02 area %
- Purity, area %, peak 2 RRT 0.60-0.61 ([2]; 25° C./60% RH open, 4 weeks): 0.05 area %
- Purity, area %, peak 3 RRT 0.81 ([2]; 25° C./60% RH open, 4 weeks): 0.54 area %
- Purity, area %, peak 4 RRT 0.93 ([2]; 25° C./60% RH open, 4 weeks): 0.05 area %
- Purity, area %, peak 5 RRT 1.00 (main peak) ([2]; 25° C./60% RH open, 4 weeks): 99.14 area %
- Purity, area %, peak 6 RRT 1.10 ([2]; 25° C./60% RH open, 4 weeks): 0.14 area %
- Purity, area %, peak 7 RRT 1.27 ([2]; 25° C./60% RH open, 4 weeks): 0.06 area %
- Purity, area %, peak 1 RRT 0.42 ([2]; 40° C./75% RH open, 1 week*): 0.03 area %
- Purity, area %, peak 2 RRT 0.60-0.61 ([2]; 40° C./75% RH open, 1 week*): 0.04 area %
- Purity, area %, peak 3 RRT 0.81 ([2]; 40° C./75% RH open, 1 week*): 0.69 area %
- Purity, area %, peak 4 RRT 0.93 ([2]; 40° C./75% RH open, 1 week*): 0.04 area %
- Purity, area %, peak 5 RRT 1.00 (main peak) ([2]; 40° C./75% RH open, 1 week*): 99.02 area %
- Purity, area %, peak 6 RRT 1.10 ([2]; 40° C./75% RH open, 1 week*): 0.13 area %
- Purity, area %, peak 7 RRT 1.27 ([2]; 40° C./75% RH open, 1 week*): 0.06 area %
- Purity, area %, peak 1 RRT 0.42 ([2]; 40° C./75% RH open, 4 weeks): 0.03 area %
- Purity, area %, peak 2 RRT 0.60-0.61 ([2]; 40° C./75% RH open, 4 weeks): 0.08 area %
- Purity, area %, peak 3 RRT 0.81 ([2]; 40° C./75% RH open, 4 weeks): 0.86 area %
- Purity, area %, peak 4 RRT 0.93 ([2]; 40° C./75% RH open, 4 weeks): 0.05 area %
- Purity, area %, peak 5 RRT 1.00 (main peak) ([2]; 40° C./75% RH open, 4 weeks): 98.80 area %
- Purity, area %, peak 6 RRT 1.10 ([2]; 40° C./75% RH open, 4 weeks): 0.13 area %
- Purity, area %, peak 7 RRT 1.27 ([2]; 40° C./75% RH open, 4 weeks): 0.05 area %
- Purity, area %, peak 1 RRT 0.42 [2, 3]: 0.03 area %
- Purity, area %, peak 2 RRT 0.60-0.61 [2, 3]: 0.05 area %
- Purity, area %, peak 3 RRT 0.81 [2, 3]: 0.55 area %
- Purity, area %, peak 4 RRT 0.93 [2, 3]: 0.05 area %
- Purity, area %, peak 5 RRT 1.00 (main peak) [2, 3]: 99.12 area %
- Purity, area %, peak 6 RRT 1.10 [2, 3]: 0.15 area %
- Purity, area %, peak 7 RRT 1.27 [2, 3]: 0.05 area %
- Purity, area %, peak 1 RRT 0.42 ([2]; Start (60° C. closed test)): 0.03 area %
- Purity, area %, peak 2 RRT 0.60-0.61 ([2]; Start (60° C. closed test)): 0.05 area %
- Purity, area %, peak 3 RRT 0.81 ([2]; Start (60° C. closed test)): 0.54 area %
- Purity, area %, peak 4 RRT 0.93 ([2]; Start (60° C. closed test)): 0.05 area %
- Purity, area %, peak 5 RRT 1.00 (main peak) ([2]; Start (60° C. closed test)): 99.13 area %
- Purity, area %, peak 6 RRT 1.10 ([2]; Start (60° C. closed test)): 0.15 area %
- Purity, area %, peak 7 RRT 1.27 ([2]; Start (60° C. closed test)): 0.06 area %
- Purity, area %, peak 1 RRT 0.42 [2, 4]: 0.02 area %
- Purity, area %, peak 2 RRT 0.60-0.61 [2, 4]: 0.03 area %
- Purity, area %, peak 3 RRT 0.81 [2, 4]: 0.48 area %
- Purity, area %, peak 4 RRT 0.93 [2, 4]: 0.05 area %
- Purity, area %, peak 5 RRT 1.00 (main peak) [2, 4]: 99.22 area %
- Purity, area %, peak 6 RRT 1.10 [2, 4]: 0.14 area %
- Purity, area %, peak 7 RRT 1.27 [2, 4]: 0.06 area %
- crystalline form after the stability test (XRPD) ([2]; after stability test): no change in crystalline form
- change in HPLC purity ([2]; listed as crystalline form C of methanesulfonate): no significant decrease
- change in HPLC purity [2]: No significant change
- decrease in purity [2, 5]: 0.42 area %
- increase in the impurity at RRT of 0.81 [2, 5]: 0.38%
- hygroscopicity classification (Hygroscopicity, DVS test; DVS 0% RH-95% RH at 25° C., classification per Chinese Pharmacopoeia 2015): slight hygroscopicity
- hygroscopic weight gain (Hygroscopicity, DVS test; DVS, 25° C./80% RH): about 0.46%
SMILES: COc1cc2nccc(Oc3ccc4c(c3)CCCN4C(=O)Nc3cccc(F)c3)c2cc1OC [Crystalline form C, N-(3-fluorophenyl)-6-(6,7-dimethoxyquinolin-4-oxy)-3,4-dihydroquinoline-1(2H)-carboxamide methanesulfonate]
- solid state stability compared with other crystalline forms [2]: better than that of the crystalline form A and the crystalline form B
- hygroscopicity compared with other crystalline forms (Hygroscopicity, DVS test): better than that of the crystalline form A and the crystalline form B
- crystalline form after the DVS test (XRPD) (Hygroscopicity, DVS test; after DVS test, listed as crystalline form C of methanesulfonate, methanesulfonate): no change in crystalline form; also recorded: remained unchanged
